In this test the target is T1, Aromatase (Homo sapiens, UniProt P11511).
T1 sequence (P11511 whole entry): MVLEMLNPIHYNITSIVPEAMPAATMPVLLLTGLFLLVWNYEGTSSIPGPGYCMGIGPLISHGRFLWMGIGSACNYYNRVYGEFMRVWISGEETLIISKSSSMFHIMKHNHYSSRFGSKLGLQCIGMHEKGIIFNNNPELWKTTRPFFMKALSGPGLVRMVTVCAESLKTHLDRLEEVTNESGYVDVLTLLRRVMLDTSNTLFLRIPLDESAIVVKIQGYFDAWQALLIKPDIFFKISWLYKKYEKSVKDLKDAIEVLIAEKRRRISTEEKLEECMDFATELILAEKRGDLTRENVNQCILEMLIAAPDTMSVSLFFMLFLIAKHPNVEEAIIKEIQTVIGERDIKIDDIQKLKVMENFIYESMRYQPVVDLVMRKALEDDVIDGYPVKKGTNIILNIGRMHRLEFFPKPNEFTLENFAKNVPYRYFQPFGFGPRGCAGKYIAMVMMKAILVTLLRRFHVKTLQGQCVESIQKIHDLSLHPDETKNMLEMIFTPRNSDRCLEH
In words: Inhibition of recombinant human aromatase using 7-methoxy-trifluoromethylcoumarin as substrate incubated for 30 mins by fluorescence microplate reader analysis.

As usually defined, the IC50 is the point on the concentration scale where inhibition reaches its midpoint. As to `O=[N+]([O-])c1ccc(N(Cc2cccc(C(F)(F)F)c2)n2cnnc2)cc1Br`, the concentration for half-maximal inhibition (IC50) was determined as 17.4 nM.
Regarding `O=[N+]([O-])c1ccc(N(Cc2ccc(C(F)(F)F)cc2)n2cnnc2)cc1Br`, the 50% inhibitory concentration (IC50) was 43.6 nM.
In the case of `O=[N+]([O-])c1ccc(N(Cc2ccccc2)n2cnnc2)cc1Br`, the half-maximal inhibitory concentration (IC50) was determined as 39.8 nM.
The value for `N#Cc1cccc(CN(c2ccc([N+](=O)[O-])c(-c3ccccc3)c2)n2cnnc2)c1` was 73.2 nM; that for `O=[N+]([O-])c1ccc(Nn2cnnc2)cc1Br` was 90.7 nM; that for `O=[N+]([O-])c1ccc(N(Cc2cccc(C(F)(F)F)c2)n2cnnc2)cc1-c1ccccc1` was 17.4 nM.
Turning to `O=[N+]([O-])c1ccc(N(Cc2ccc(C(F)(F)F)cc2)n2cnnc2)cc1-c1ccccc1`, the IC50 was 14.5 nM.
`O=[N+]([O-])c1cccc(CN(c2ccc([N+](=O)[O-])c(-c3ccccc3)c2)n2cnnc2)c1`: the concentration for half-maximal inhibition (IC50) was found to be 19.7 nM.
With `N#Cc1ccccc1CN(c1ccc([N+](=O)[O-])c(Br)c1)n1cnnc1`, the IC50 was determined as 58.8 nM.
In the case of `N#Cc1cccc(CN(c2ccc([N+](=O)[O-])c(Br)c2)n2cnnc2)c1`, the IC50 was 57.6 nM.
As to `O=[N+]([O-])c1ccc(N(Cc2ccc(Cl)cc2)n2cnnc2)cc1Br`, the half-maximal inhibitory concentration (IC50) came out at 9.02 nM.
Consider `O=[N+]([O-])c1cccc(CN(c2ccc([N+](=O)[O-])c(Br)c2)n2cnnc2)c1`, for which the 50% inhibitory concentration (IC50) is 12.1 nM.
Then `O=[N+]([O-])c1ccc(N(Cc2ccccc2)n2cnnc2)cc1-c1ccccc1`, with 30.2 nM.

(Values after ChEMBL document CHEMBL4477276, “Synthesis and aromatase inhibitory evaluation of 4-N-nitrophenyl substituted amino-4H-1,2,4-triazole derivatives” (Bioorg Med Chem, 2016).)
